Measured values reported in US6552086B1, “Sulfonamide derivatives” (Eli Lilly and Company, priority 1998, dated 2003).

Target: T1, human GluR4B receptor (Homo sapiens, UniProt P48058)
T1 construct: expressed in transfected cells
Assay: Potentiation of agonist-induced excitability of human GluR4B expressed in HEK 293 cells
Format: cell-based
Conditions: human GluR4B receptor expressed in HEK 293 cells
Excerpt: The ability of compounds of formula I to potentiate glutamate receptor-mediated response may be determined using fluorescent calcium indicator dyes (Molecular Probes, Eugene, Oreg., Fluo-3) and by measuring glutamate-evoked efflux of calcium into GluR4 transfected HEK293 cells, as described in more detail below.
In one test, 96 well plates containing confluent monolayers of HEK cells stably expressing human GluR4B (obtained as described in European Patent Application Publication Number EP-A1-583917) are prepared. The tissue culture medium in the wells is then discarded, and the wells are each washed once with 200 μl of buffer (glucose, 10 mM, sodium chloride, 138 mM, magnesium chloride, 1 mM, potassium chloride, 5 mM, calcium chloride, 5 mM, N-[2-hydroxyethyl]-piperazine-N-[2-ethanesulfonic acid], 10 mM, to pH 7.1 to 7.3). […]
Each test is then performed as follows. […] A second fluorescent reading is taken after 5 minutes incubation. 15 μl of 400 μM glutamate solution is then added to each well (final glutamate concentration 100 μM), and a third reading is taken. The activities of test compounds and cyclothiazide solutions are determined by subtracting the second from the third reading (fluorescence due to addition of glutamate in the presence or absence of test compound or cyclothiazide) and are expressed relative to enhance fluorescence produced by 100 μM cyclothiazide.

T1 sequence (P48058 21-902): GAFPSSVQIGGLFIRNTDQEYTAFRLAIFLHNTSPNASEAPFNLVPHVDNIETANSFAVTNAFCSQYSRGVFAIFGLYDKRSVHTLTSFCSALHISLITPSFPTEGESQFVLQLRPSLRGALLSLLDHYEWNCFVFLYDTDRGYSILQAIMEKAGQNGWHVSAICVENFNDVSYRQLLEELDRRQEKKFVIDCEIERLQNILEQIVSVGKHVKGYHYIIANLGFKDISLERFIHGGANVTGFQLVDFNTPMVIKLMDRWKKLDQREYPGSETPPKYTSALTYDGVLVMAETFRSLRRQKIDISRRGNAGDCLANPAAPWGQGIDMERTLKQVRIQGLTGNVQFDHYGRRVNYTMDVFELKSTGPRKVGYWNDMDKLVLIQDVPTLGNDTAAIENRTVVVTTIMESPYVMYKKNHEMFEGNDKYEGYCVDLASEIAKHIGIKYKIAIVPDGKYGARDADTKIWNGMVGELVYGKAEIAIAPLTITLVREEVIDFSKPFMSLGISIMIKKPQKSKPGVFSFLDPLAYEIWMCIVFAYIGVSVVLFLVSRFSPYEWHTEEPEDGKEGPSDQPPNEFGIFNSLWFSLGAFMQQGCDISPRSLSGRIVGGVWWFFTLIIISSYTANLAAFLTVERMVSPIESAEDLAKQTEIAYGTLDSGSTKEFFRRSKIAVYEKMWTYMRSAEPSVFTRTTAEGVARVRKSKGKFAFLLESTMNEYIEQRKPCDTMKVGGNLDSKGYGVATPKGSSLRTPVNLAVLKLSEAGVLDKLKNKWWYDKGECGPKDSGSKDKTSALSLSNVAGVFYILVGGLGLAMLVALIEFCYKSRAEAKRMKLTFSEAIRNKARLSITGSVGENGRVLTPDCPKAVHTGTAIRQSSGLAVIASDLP

NS(=O)(=O)c1cc2c(cc1Cl)NC(C1CC3C=CC1C3)NS2(=O)=O (stereo not shown) [cyclothiazide]
potentiation of agonist-induced excitability: potentiate
